How the values were obtained:
human isoQC = molecular target: T1, human isoQC (Homo sapiens, UniProt Q9NXS2); test: Assay 1 - isoQC potency, fluorescent enzymatic assay (H-Gln-AMC, coupled pGAPase detection); assay type: biochemical; settings: recombinant isoQC, 1 hour at 37°C
T1 construct: The Golgi luminal, enzymatically active region of human isoQC (S53-L382; see, e.g., Huang et al., 2011); GST (with enterokinase site) (N, cleaved yes); made in house; host or cells: E. coli
Source text: The Golgi luminal, enzymatically active region of human isoQC (S53-L382; see, e.g., Huang et al., 2011) was obtained by expression in E. coli of an N-terminally GST Enterokinase and C-terminally 6xHis tagged construct in the pET41(+) vector and subsequent purification using Ni-NTA IMAC. Enterokinase digestion ensued, followed by another Ni-NTA IMAC purification, Superdex75 based size exclusion and finally a spin concentration using a 10 kDa molecular weight cutoff. The final protein is formulated in 50 mM Tris-HCl, 150 mM NaCl, 50% Glycerol, pH 7.8.
(§1) Pyroglutamylation was measured by conversion of glutamine-4-amino-7-methylcoumarine (H-Gln-AMC, Bachem) to pyroglutamyl-AMC, which is subsequently a specific substrate for pyroglutamylaminopeptidase (pGAPase, Qiagen), releasing free AMC which can be fluorescently detected. For a typical inhibition assay, 7.5 µL aliquots of threefold dilutions of test compound in 50mM Tris pH8 buffer were plated in 384-well plates. 15 µL 20 µM hGln-AMC (diluted from a 40 mM stock dissolved in 25 mM HEPES using 50 mM Tris-HCl 25 pH 8.0) was added to each well. Finally, 7.5 µL, 3 ng/µL recombinant isoQC enzyme was added and the reaction mixture was incubated for 1 hour at 37°C. A 5 minute incubation at 98°C was then performed to denature the isoQC enzyme and stop the reaction.
To detect the amount of pyroglutamyl-AMC formed, a 0.125 U/mL pGAPase enzyme diluted in 50 mM Tris-HCl pH 8.0 containing 10 mM dithiothreitol (DTT) solution was prepared. 25 µL of the pyroglutamylation reaction mixture was transferred into an empty plate and to that, 25 µL of the pGAPase enzyme solution was added. Plates were then incubated for 25 minutes at room temperature before fluorescence readings were taken on an Envision2 plate reader with excitation set at 380 nm and emission at 450 nm. DMSO concentrations during the assay never exceeded 1% and activities were compared to controls containing only the same amount of DMSO and no test compound. Controls were taken along containing pyroglutamylated-AMC (Bachem, dissolved at 10 mM in DMSO) instead of H-Gln-AMC to control for pGAPase inhibition.
(§2) IC50 values are calculated using non-linear regression analysis with GraphPad Prism software.

pyroglutamylated CD47 = test: Assay 3 - cell-based potency assay (pyroglutamylation in live cells, total CD47/pE-CD47 dual staining, FACS); design: species or system human; settings: IC50 of CC2C6 signal, KBM7 cells, 72 hours incubation
Description: Cells were spun for 4 minutes at 1500 rpm and washed once with PBS / 0.5% BSA. Cells were spun down again and the supernatant was removed and incubated in 100 uL antibody staining solution (PBS / 0.5% BSA / 0.1 µg/mL DAPI (4',6-diamidino-2-phenylindole, ThermoFisher Scientific) and a mixture of 1:500 FITC-conjugated anti-human CD47 clone 2D3, which recognizes total CD47 irrespective of its pyroglutamylation state, and 1:500 Alexa647-conjugated anti-human CD47 clone CC2C6, which specifically detects pyroglutamylated CD47) for 2 hours at 4°C. Next, the cells were spun down and washed twice with 2 x 150 µL PBS / 0.5% BSA to remove unbound antibody. Cells were again spun down and taken up in 300 µL FACS buffer before analysis on a Celesta FACS machine (BD Biosciences).
KBM7 cells (Kotecki et al., 1999) were infected with lentivirus produced by transfecting pSCNC-LentiCRISPR-QPCTL or pSCNC-LentiCRISPR-CD47 into HEK-293T cells according to standard protocols. After 24 hours incubation, cells were selected with puromycin (Invivogen, 1 µg/mL) for 48 hours. Cells were stained for total CD47 and pE-CD47 and QPCTL k.o. cells were sorted out as negative for pE-CD47, and CD47 k.o. cells as negative for total CD47, using a FACSAria III and FACS Diva software (BD Biosciences).
In order to test compounds for their effect on pyroglutamylation in live cells, 25000 KBM7 cells per well were seeded in a 96-well U-bottom plate in 150 µl IMDM / 10% FCS / 1% Pen / Strep medium and a 10-point 2-fold dilution range of test compounds. After 72 hours incubation at 37°C, 5% COz, cells were stained for total CD47 and pE-CD47 and analysed on a BD Celesta using FACS Diva software (BD Biosciences). Cells gated for DAPI negativity were recorded and the median fluorescence intensity (MFI) of each sample was transformed to linearly scale between the MFI's of wildtype and CD47 knockout cells (in case of the 2D3 antibody) and the wildtype and QPCTL knockout cells (in case of the CC2C6 antibody). ICso's were calculated by 3 parameter logistic regression of the CC2C6 signal vs. compound concentration, where the top of the sigmoidal curve was fixed at 1, using R and the drc package (http://www.r-project.org, https://cran.r-project.org/web/packages/drc/index.html).

recombinant QC enzyme = molecular target: T2, recombinant QC enzyme (Homo sapiens, UniProt Q16769); test: Assay 2 - QC potency, fluorescent enzymatic assay (H-Gln-AMC, coupled pGAPase detection); assay type: biochemical; settings: 1 hour at 37°C
T2 construct: bacterial expression of residues 33-361 of uniprot ID Q16769, fused to a His tag; His tag (cleaved yes); made in house
Description: After scale-up, expression and lysis, protein was purified by Ni-NTA IMAC, dialysed in the presence of Factor Xa, further purified by Ni-NTA reverse IMAC and finally filtrated for size on a Superdex 200 16/60 column. Final protein was concentrated using a spin concentrator at 10 kDa molecular weight cut-off and formulated in 150 mM NaCl, 50 mM Tris-HCl, 50% Glycerol, pH 8.0.
as §1, with “50 mM” for “50mM”, “h-Gln-AMC” for “hGln-AMC”, “Tris-HCl” for “Tris-HCl 25”, “QC” for “isoQC”
25 µL of the pyroglutamylation reaction mixture was transferred into an empty plate and to that, 25 µL of the pGAPase enzyme solution was added. Plates were then incubated for 25 minutes at room temperature before fluorescence readings were taken on an Envision2 plate reader with excitation set at 380 nm and emission at 450 nm.
Controls were taken along containing pyroglutamylated-AMC (Bachem, dissolved at 10 mM in DMSO) instead of H-Gln-AMC to control for pGAPase inhibition.
as §2

T2 sequence (Q16769 33-361): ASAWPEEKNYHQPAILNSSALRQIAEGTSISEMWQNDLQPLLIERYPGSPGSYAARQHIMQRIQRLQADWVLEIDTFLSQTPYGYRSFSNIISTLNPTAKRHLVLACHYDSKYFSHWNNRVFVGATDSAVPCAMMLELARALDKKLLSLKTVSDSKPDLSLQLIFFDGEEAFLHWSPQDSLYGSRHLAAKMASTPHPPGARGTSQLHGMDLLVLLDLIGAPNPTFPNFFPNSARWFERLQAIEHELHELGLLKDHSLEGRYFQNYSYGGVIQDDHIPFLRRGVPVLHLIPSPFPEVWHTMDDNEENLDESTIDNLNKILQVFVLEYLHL
T1 sequence (Q9NXS2 53-382): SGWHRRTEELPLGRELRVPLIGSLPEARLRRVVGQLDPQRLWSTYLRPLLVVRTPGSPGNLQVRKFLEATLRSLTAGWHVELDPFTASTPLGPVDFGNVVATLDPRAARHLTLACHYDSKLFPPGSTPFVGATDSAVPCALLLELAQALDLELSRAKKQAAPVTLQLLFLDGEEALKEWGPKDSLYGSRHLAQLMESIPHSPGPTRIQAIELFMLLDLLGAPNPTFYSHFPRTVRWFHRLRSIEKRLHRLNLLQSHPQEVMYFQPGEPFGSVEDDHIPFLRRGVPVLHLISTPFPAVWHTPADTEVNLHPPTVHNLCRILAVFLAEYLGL

Row | SMILES | IC50 (human isoQC) | IC50 (pyroglutamylated CD47; Homo sapiens, KBM-7, 72 h) | IC50 (recombinant QC enzyme) | IC50 (pyroglutamylated CD47)
1 | O=C1OC[C@H](c2ccc(-c3cnn(CF)c3)cc2F)N1c1ccc2[nH]cnc2c1 [(13)] | 4 nM | 401 nM | 11.3 nM | –
2 | O=C1OC[C@H](c2ccc(-c3ccn(C(F)(F)F)n3)cc2F)N1c1ccc2[nH]cnc2c1 [(5)] | 7.7 nM | 659 nM | 34.7 nM | –
3 | O=C1OC[C@H](c2ccc(-c3ccc(C(F)(F)F)s3)cc2F)N1c1ccc2[nH]cnc2c1 [(8)] | 13.4 nM | 526 nM | 86 nM | –
4 | O=C1OC[C@H](c2ccc(-c3cnn(C4CC(F)(F)C4)c3)cc2F)N1c1ccc2[nH]cnc2c1 [(16)] | 5.1 nM | – | 9.4 nM | –
5 | O=C1OCC(c2ccc(C3CCC(F)(F)CC3)cc2)N1c1ccc2[nH]cnc2c1 (single isomer, unassigned) [(19)-ent1, reference compound] | 1240 nM | – | – | > 12500 nM
6 | O=C1OC[C@H](c2ccc(-c3cc(C(F)(F)F)no3)cc2F)N1c1ccc2[nH]cnc2c1 [(11)] | 5.2 nM | 252 nM | 24.3 nM | –
7 | O=C1OC[C@H](c2ccc(-c3noc(C(F)(F)F)n3)cc2F)N1c1ccc2[nH]cnc2c1 [(10)] | 12.6 nM | – | 48.2 nM | –
8 | O=C1OCC(c2cc(F)cc(C(F)(F)F)c2)N1c1ccc2[nH]cnc2c1 (single isomer, unassigned) [(17)-ent1, reference compound] | 10900 nM | > 50000 nM | > 10000 nM | –
9 | O=C1OCC(c2ccc(N3CCCC3)cc2)N1c1ccc2[nH]cnc2c1 (racemic) [(18)-Rac, reference compound] | 48.4 nM | 8510 nM | 49.1 nM | –
10 | O=C1OC[C@H](c2ccc(-c3cnn(CC(F)F)c3)cc2F)N1c1ccc2[nH]cnc2c1 [(15)] | 2.7 nM | 155 nM | 8 nM | –
11 | O=C1OCC(c2ccc(C3CCC(F)(F)CC3)cc2)N1c1ccc2[nH]cnc2c1 (racemic) [(19)-Rac, reference compound] | 63.7 nM | 10400 nM | – | –
12 | O=C1OCC(c2ccc(N3CCCC3)cc2)N1c1ccc2[nH]cnc2c1 (single isomer, unassigned) [(18)-ent1, reference compound] | 1170 nM | – | 2530 nM | > 50000 nM
13 | O=C1OC[C@H](c2ccc(-c3cnn(C(F)(F)F)n3)cc2F)N1c1ccc2[nH]cnc2c1 [(6)] | 3 nM | – | 15.1 nM | –
14 | O=C1OC[C@H](c2ccc(-c3cnn(C(F)(F)F)c3)c(F)c2F)N1c1ccc2[nH]cnc2c1 [(2)] | 4 nM | 106 nM | 38.9 nM | –
15 | O=C1OCC(c2cc(F)cc(C(F)(F)F)c2)N1c1ccc2[nH]cnc2c1 (racemic) [(17)-Rac, reference compound] | 1200 nM | > 50000 nM | 1730 nM | –
16 | O=C1OC[C@H](c2ccc(-c3cnn(C4CC4(F)F)c3)cc2F)N1c1ccc2[nH]cnc2c1 (stereo partly drawn) [(14)] | 3.6 nM | – | 12.7 nM | –
17 | O=C1OC[C@H](c2ccc(-c3cnn(C(F)F)c3)cc2F)N1c1ccc2[nH]cnc2c1 [(12)] | 3.3 nM | 157 nM | 7.5 nM | –
18 | O=C1OC[C@H](c2ccc(-c3ccc(C(F)(F)F)o3)cc2F)N1c1ccc2[nH]cnc2c1 [(7)] | 10 nM | 503 nM | 70.1 nM | –
19 | O=C1OC[C@H](c2ccc(-c3nc(C(F)(F)F)cs3)cc2F)N1c1ccc2[nH]cnc2c1 [(9)] | 9 nM | 622 nM | 36.1 nM | –

Reference: patent publication EP4455142A1, “NOVEL INHIBITOR OF QPCTL AND/OR QC” (Scenic Immunology B.V., priority 2023, dated 2024)
